According to patent US8642597B2, “Pyrazole compounds for controlling invertebrate pests” (BASF SE, priority 2007, dated 2014):

How the values were obtained:
Format in all cases: in vivo
[1] = system: Cotton Aphid (aphis gossypii, Mixed Life Stages); test: Cotton aphid (aphis gossypii, mixed life stages), cotyledon dip test; conditions: 120 h, mortality counts after 5 days, in comparison with untreated controls
Source text: (§1) The active compounds were formulated in 50:50 (vol:vol) acetone:water and 100 ppm Kinetica™ surfactant.
Cotton plants at the cotyledon stage (one plant per pot) were infested by placing a heavily infested leaf from the main colony on top of each cotyledon. The aphids were allowed to transfer to the host plant overnight, and the leaf used to transfer the aphids was removed. The cotyledons were dipped in the test solution and allowed to dry. After 5 days, mortality counts were made.

[2] = system: Green Peach Aphid (Myzus persicae, Mixed Life Stages); test: Green peach aphid (Myzus persicae, mixed life stages), pepper leaf dip test; conditions: foliar, 120 h, after 5 days, in comparison with untreated controls
Source text: as §1
Pepper plants in the 2nd leaf-pair stage (variety ‘California Wonder’) were infested with approximately 40 laboratory-reared aphids by placing infested leaf sections on top of the test plants. The leaf sections were removed after 24 hr. The leaves of the intact plants were dipped into gradient solutions of the test compound and allowed to dry. Test plants were maintained under fluorescent light (24 hour photoperiod) at about 25° C. and 20-40% relative humidity. Aphid mortality on the treated plants, relative to mortality on check plants, was determined after 5 days.

[3] = system: Cowpea Aphid (aphis craccivora); test: Cowpea aphid (aphis craccivora), spray on potted cowpea plants; conditions: population reduction assessed after 24, 72 and 120 hours, in comparison with untreated controls
Description: The active compounds were formulated in 50:50 (vol:vol) acetone:water. The test solution was prepared at the day of use.
Potted cowpea plants colonized with 100-150 aphids of various stages were sprayed after the pest population had been recorded. Population reduction was assessed after 24, 72, and 120 hours.

[4] = system: Vetch Aphid (Megoura viciae); test: Vetch aphid (Megoura viciae), bean leaf disk microtiterplate test; conditions: foliar, 144 h, concentration of the test solution 2500 mg/L, 6 days
Description: The active compounds were formulated in 1:3 (vol:vol) DMSO:water with different concentrations of formulated compounds.
Bean leaf disks were placed into microtiterplates filled with 0.8% agar-agar and 2.5 ppm OPUS™. The leaf disks were sprayed with 2.5 μl of the test solution and 5 to 8 adult aphids were placed into the microtiterplates which were then closed and kept at 23±1° C. and 50±5% relative humidity under fluorescent light for 6 days. Mortality was assessed on the basis of vital, reproduced aphids. Aphid mortality and fecundity was then visually assessed.

[5] = system: Boll Weevil (Anthonomus grandis); test: Boll weevil (Anthonomus grandis), insect diet microtiter plate test; conditions: 120 h, concentration of the test solution 2500 mg/L, egg and larval mortality after 5 days
Description: The compounds were formulated in 75:25 (vol:vol) water:DMSO.
For evaluating control of boll weevil (Anthonomus grandis) the test unit consisted of 24-well-microtiter plates containing an insect diet and 20-30 A. grandis eggs. Different concentrations of formulated compounds were sprayed onto the insect diet at 20 μl, using a custom built micro atomizer, at two replications. After application, the microtiter plates were incubated at 23±1° C. and 50±5% relative humidity for 5 days. Egg and larval mortality was then visually assessed.

CN(C(=O)c1cnn(C(F)F)c1)c1cccnc1 [Compound 222]
mortality at 300 ppm [1]: ≥ 75%
mortality at 300 ppm [2]: ≥ 50%
mortality at 300 ppm [3]: ≥ 75%

CCCCCCCn1cc(C(=O)Nc2cccnc2)cn1 [Compound 140]
mortality at 300 ppm [2]: ≥ 50%
mortality at 2500 µg/mL [4]: ≥ 80%

CCCn1cc(C(=O)Nc2cccnc2)cn1 [Compound 108]
mortality at 300 ppm [1]: ≥ 75%
mortality at 300 ppm [2]: ≥ 50%
mortality at 300 ppm [3]: ≥ 75%
mortality at 2500 µg/mL [4]: ≥ 80%
mortality at 2500 µg/mL [5]: 100%

CC(C)n1cc(C(=O)Nc2cccnc2)cn1 [Compound 200]
mortality at 300 ppm [1]: ≥ 75%
mortality at 300 ppm [2]: ≥ 50%
mortality at 300 ppm [3]: ≥ 75%

O=C(Nc1cccnc1)c1cnn(Cc2ccc(Cl)cc2)c1 [Compound 81]
mortality at 300 ppm [2]: ≥ 50%
mortality at 300 ppm [3]: ≥ 75%
mortality at 2500 µg/mL [5]: 100%

Cn1cc(C(=O)Nc2cccnc2)cn1 [Compound 107]
mortality at 300 ppm [1]: ≥ 75%
mortality at 300 ppm [2]: ≥ 50%
mortality at 300 ppm [3]: ≥ 75%
mortality at 2500 µg/mL [4]: ≥ 80%
mortality at 2500 µg/mL [5]: 100%

CC(C)c1c(C(=O)Nc2cccnc2)cnn1-c1ccccc1 [Compound 120]
mortality at 300 ppm [1]: ≥ 75%
mortality at 300 ppm [2]: ≥ 50%
mortality at 300 ppm [3]: ≥ 75%
mortality at 2500 µg/mL [4]: ≥ 80%

O=C(Nc1cccnc1)c1cnn(-c2ccccc2)c1 [Compound 106]
mortality at 300 ppm [3]: ≥ 75%
mortality at 2500 µg/mL [5]: 100%

Cn1ncc(C(=O)Nc2cccnc2)c1-c1ccccc1 [Compound 71]
mortality at 300 ppm [1]: ≥ 75%
mortality at 300 ppm [2]: ≥ 50%
mortality at 2500 µg/mL [4]: ≥ 80%

O=C(Nc1cccnc1)c1cnn(-c2ccccc2Cl)c1C(F)F [Compound 148]
mortality at 300 ppm [1]: ≥ 75%
mortality at 300 ppm [2]: ≥ 50%
mortality at 300 ppm [3]: ≥ 75%
mortality at 2500 µg/mL [4]: ≥ 80%
mortality at 2500 µg/mL [5]: 100%

Cc1ccc(S(=O)(=O)N(C(=O)c2cn(C)nc2C(F)(F)F)c2cccnc2)cc1 [Compound 136]
mortality at 300 ppm [1]: ≥ 75%
mortality at 300 ppm [2]: ≥ 50%
mortality at 300 ppm [3]: ≥ 75%
mortality at 2500 µg/mL [4]: ≥ 80%

Cc1c(C(=O)Nc2cccnc2)cnn1C(F)F [Compound 208]
mortality at 300 ppm [1]: ≥ 75%
mortality at 300 ppm [2]: ≥ 50%
mortality at 300 ppm [3]: ≥ 75%

Cc1c(C(=O)N(C)c2cccnc2)cnn1C [Compound 178]
mortality at 300 ppm [1]: ≥ 75%
mortality at 300 ppm [2]: ≥ 50%
mortality at 300 ppm [3]: ≥ 75%

O=C(Nc1cccnc1)c1cn(C(F)F)nc1C(F)F [Compound 194]
mortality at 300 ppm [1]: ≥ 75%
mortality at 300 ppm [2]: ≥ 50%
mortality at 300 ppm [3]: ≥ 75%
mortality at 2500 µg/mL [4]: ≥ 80%
mortality at 2500 µg/mL [5]: 100%

O=C(Nc1cccnc1)c1cnn(-c2ccc(Cl)cc2)c1C(F)F [Compound 86]
mortality at 300 ppm [1]: ≥ 75%
mortality at 300 ppm [2]: ≥ 50%
mortality at 300 ppm [3]: ≥ 75%
mortality at 2500 µg/mL [5]: 100%

C#CCN(C(=O)c1cn(C)nc1C(F)(F)F)c1cccnc1 [Compound 141]
mortality at 300 ppm [1]: ≥ 75%
mortality at 300 ppm [2]: ≥ 50%
mortality at 300 ppm [3]: ≥ 75%
mortality at 2500 µg/mL [4]: ≥ 80%

O=C(Nc1cccnc1)c1cn[nH]c1 [Compound 87]
mortality at 300 ppm [1]: ≥ 75%
mortality at 300 ppm [2]: ≥ 50%
mortality at 300 ppm [3]: ≥ 75%
mortality at 2500 µg/mL [4]: ≥ 80%
mortality at 2500 µg/mL [5]: 100%

O=C(Nc1cccnc1)c1cnn(C(F)F)c1C(F)(F)F [Compound 190]
mortality at 300 ppm [1]: ≥ 75%
mortality at 300 ppm [2]: ≥ 50%
mortality at 300 ppm [3]: ≥ 75%
mortality at 2500 µg/mL [4]: ≥ 80%
mortality at 2500 µg/mL [5]: 100%

Cc1cc(C(=O)Nc2cccnc2)n(C)n1 [Compound 3]
mortality at 300 ppm [1]: ≥ 75%
mortality at 300 ppm [2]: ≥ 50%
mortality at 300 ppm [3]: ≥ 75%
mortality at 2500 µg/mL [4]: ≥ 80%

O=C(Nc1cccnc1)c1cnn(-c2ccc(F)cc2)c1I [Compound 124]
mortality at 300 ppm [1]: ≥ 75%
mortality at 300 ppm [2]: ≥ 50%
mortality at 300 ppm [3]: ≥ 75%
mortality at 2500 µg/mL [4]: ≥ 80%

N#CN(C(=O)c1cnn(C(F)F)c1C(F)F)c1cccnc1 [Compound 210]
mortality at 300 ppm [1]: ≥ 75%
mortality at 300 ppm [2]: ≥ 50%
mortality at 300 ppm [3]: ≥ 75%
mortality at 2500 µg/mL [4]: ≥ 80%

O=C(Nc1cccnc1)c1cnn(-c2c(F)cccc2F)c1C(F)F [Compound 162]
mortality at 2500 µg/mL [4]: ≥ 80%
mortality at 2500 µg/mL [5]: 100%

CC(C)n1cc(C(=O)Nc2cccnc2)cn1 [Compound 97]
mortality at 2500 µg/mL [4]: ≥ 80%

CCc1c(C(=O)Nc2cccnc2)cnn1-c1ccc([N+](=O)[O-])cc1 [Compound 144]
mortality at 300 ppm [1]: ≥ 75%
mortality at 300 ppm [2]: ≥ 50%
mortality at 300 ppm [3]: ≥ 75%
mortality at 2500 µg/mL [4]: ≥ 80%

CCCN(C(=O)c1cn(C)nc1C(F)(F)F)c1cccnc1 [Compound 202]
mortality at 300 ppm [1]: ≥ 75%
mortality at 300 ppm [2]: ≥ 50%
mortality at 300 ppm [3]: ≥ 75%
mortality at 2500 µg/mL [4]: ≥ 80%

CN(C(=O)c1cnn(C)c1)c1cccnc1 [Compound 177]
mortality at 300 ppm [1]: ≥ 75%
mortality at 300 ppm [2]: ≥ 50%
mortality at 300 ppm [3]: ≥ 75%

Cc1c(C(=O)Nc2cccnc2)cnn1-c1ccc(F)cc1 [Compound 165]
mortality at 300 ppm [1]: ≥ 75%
mortality at 300 ppm [2]: ≥ 50%
mortality at 300 ppm [3]: ≥ 75%
mortality at 2500 µg/mL [4]: ≥ 80%

CCn1ncc(C(=O)Nc2cccnc2)c1C [Compound 72]
mortality at 300 ppm [1]: ≥ 75%
mortality at 300 ppm [3]: ≥ 75%
mortality at 2500 µg/mL [4]: ≥ 80%

COc1ccccc1-n1ncc(C(=O)Nc2cccnc2)c1C(F)F [Compound 150]
mortality at 300 ppm [1]: ≥ 75%
mortality at 300 ppm [2]: ≥ 50%
mortality at 2500 µg/mL [4]: ≥ 80%
mortality at 2500 µg/mL [5]: 100%

O=C(Nc1cccnc1)c1cnn(-c2cccc([N+](=O)[O-])c2)c1C(F)F [Compound 153]
mortality at 2500 µg/mL [4]: ≥ 80%
mortality at 2500 µg/mL [5]: 100%

O=C(Nc1cccnc1)c1cnn(C2CC2)c1 [Compound 119]
mortality at 300 ppm [1]: ≥ 75%
mortality at 300 ppm [2]: ≥ 50%
mortality at 300 ppm [3]: ≥ 75%
mortality at 2500 µg/mL [4]: ≥ 80%

CC(C)N(C(=O)c1cn(C)nc1C(F)(F)F)c1cccnc1 [Compound 130]
mortality at 300 ppm [1]: ≥ 75%
mortality at 300 ppm [2]: ≥ 50%
mortality at 2500 µg/mL [4]: ≥ 80%

CO/N=C(/Nc1cccnc1)c1cn(C)nc1C(F)(F)F [Compound 242]
mortality at 300 ppm [1]: ≥ 75%
mortality at 300 ppm [2]: ≥ 50%
mortality at 300 ppm [3]: ≥ 75%
mortality at 2500 µg/mL [4]: ≥ 80%

Cn1ccc(C(=O)Nc2cccnc2)n1 [Compound 1]
mortality at 300 ppm [1]: ≥ 75%
mortality at 300 ppm [2]: ≥ 50%
mortality at 300 ppm [3]: ≥ 75%

O=C(Nc1cccnc1)c1cnn(-c2ccc(F)cc2)c1 [Compound 113]
mortality at 300 ppm [3]: ≥ 75%

CC(C)c1c(C(=O)Nc2cccnc2)cnn1C [Compound 90]
mortality at 300 ppm [3]: ≥ 75%

O=C(Nc1cccnc1)c1cnn(C(F)F)c1C(F)F [Compound 188]
mortality at 300 ppm [1]: ≥ 75%
mortality at 300 ppm [2]: ≥ 50%
mortality at 300 ppm [3]: ≥ 75%
mortality at 2500 µg/mL [5]: 100%

O=C(Nc1cccnc1)c1cnn(C(F)(F)F)c1 [Compound 205]
mortality at 300 ppm [1]: ≥ 75%
mortality at 300 ppm [2]: ≥ 50%
mortality at 300 ppm [3]: ≥ 75%
mortality at 2500 µg/mL [4]: ≥ 80%

O=C(Nc1cccnc1)c1cnn(-c2ccccn2)c1 [Compound 105]
mortality at 300 ppm [1]: ≥ 75%
mortality at 300 ppm [2]: ≥ 50%
mortality at 2500 µg/mL [5]: 100%

O=C(Nc1cccnc1)c1cn(-c2ccc([N+](=O)[O-])cc2)nc1C(F)F [Compound 171]
mortality at 2500 µg/mL [5]: 100%

Cc1nn(C)cc1C(=O)Nc1cccnc1 [Compound 70]
mortality at 300 ppm [1]: ≥ 75%
mortality at 300 ppm [2]: ≥ 50%
mortality at 300 ppm [3]: ≥ 75%

CCn1cc(C(=O)N(C)c2cccnc2)c(C(F)F)n1 [Compound 182]
mortality at 300 ppm [1]: ≥ 75%
mortality at 300 ppm [2]: ≥ 50%
mortality at 300 ppm [3]: ≥ 75%
mortality at 2500 µg/mL [4]: ≥ 80%

Cc1cc(C(=O)Nc2cccnc2)nn1C [Compound 10]
mortality at 300 ppm [1]: ≥ 75%
mortality at 300 ppm [2]: ≥ 50%
mortality at 300 ppm [3]: ≥ 75%

CCn1cc(C(=O)N(C)c2cccnc2)cn1 [Compound 187]
mortality at 300 ppm [1]: ≥ 75%
mortality at 300 ppm [2]: ≥ 50%
mortality at 300 ppm [3]: ≥ 75%

COc1ccc(-n2ncc(C(=O)Nc3cccnc3)c2C(F)(F)F)cc1 [Compound 226]
mortality at 300 ppm [1]: ≥ 75%
mortality at 300 ppm [2]: ≥ 50%
mortality at 2500 µg/mL [4]: ≥ 80%

O=C(Nc1cccnc1)c1cn(C(F)F)nc1C(F)(F)F [Compound 192]
mortality at 300 ppm [1]: ≥ 75%
mortality at 300 ppm [2]: ≥ 50%
mortality at 300 ppm [3]: ≥ 75%
mortality at 2500 µg/mL [5]: 100%
